This is an account of results in PubChem BioAssay AID328 (DTP/NCI, 2004).

In the experiment the test system is BDF1 mice, P388 leukemia ip, median survival T/C. The experiment is described as follows: NCI In Vivo Anticancer Drug Screen. Data for tumor model P388 Leukemia (intraperitoneal) in B6D2F1 (BDF1) mice. The following applies: endpoint: median survival time, higher = longer survival. The essentials:
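Survival ratio, drug arm over vehicle arm, in mice with a transplanted tumour.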

Setting [1] is: dose: 100.0 mg/kg/injection, schedule: Q04DX003 (ip), vehicle: saline.
Where [2] appears, read: dose: 200.0 mg/kg/injection, schedule: Q04DX003 (ip), vehicle: saline.
The mark [3] stands for this setting: dose: 400.0 mg/kg/injection, schedule: Q04DX003 (ip), vehicle: saline.
[4] abbreviates: dose: 100.0 mg/kg/injection, schedule: Q04DX003 (ip), vehicle: saline with Tween-80.
Where [5] appears, read: dose: 200.0 mg/kg/injection, schedule: Q04DX003 (ip), vehicle: saline with Tween-80.
The mark [6] stands for this setting: dose: 400.0 mg/kg/injection, schedule: Q04DX003 (ip), vehicle: saline with Tween-80.
[7] abbreviates: dose: 100.0 mg/kg/injection, schedule: Q01DX009 (ip), vehicle: Klucel (hydroxypropylcellulose) (HPC).
The mark [8] stands for this setting: dose: 200.0 mg/kg/injection, schedule: Q01DX009 (ip), vehicle: Klucel (hydroxypropylcellulose) (HPC).
Where [9] appears, read: dose: 50.0 mg/kg/injection, schedule: Q01DX009 (ip), vehicle: saline with Tween-80.
[10] abbreviates: dose: 100.0 mg/kg/injection, schedule: Q01DX009 (ip), vehicle: saline with Tween-80.
The mark [11] stands for this setting: dose: 200.0 mg/kg/injection, schedule: Q01DX009 (ip), vehicle: saline with Tween-80.
[12] abbreviates: dose: 400.0 mg/kg/injection, schedule: Q01DX009 (ip), vehicle: Klucel (hydroxypropylcellulose) (HPC).
Where [13] appears, read: dose: 50.0 mg/kg/injection, schedule: Q04DX003 (ip), vehicle: saline with Tween-80.
[14] abbreviates: dose: 100.0 mg/kg/injection, schedule: Q04DX003 (ip), vehicle: Klucel (hydroxypropylcellulose) (HPC).
Setting [15] is: dose: 200.0 mg/kg/injection, schedule: Q04DX003 (ip), vehicle: Klucel (hydroxypropylcellulose) (HPC).
Where [16] appears, read: dose: 400.0 mg/kg/injection, schedule: Q04DX003 (ip), vehicle: Klucel (hydroxypropylcellulose) (HPC).
[17] abbreviates: dose: 100.0 mg/kg/injection, schedule: Q01DX001 (ip), vehicle: saline with Tween-80.
The mark [18] stands for this setting: dose: 200.0 mg/kg/injection, schedule: Q01DX001 (ip), vehicle: saline with Tween-80.
Setting [19] is: dose: 400.0 mg/kg/injection, schedule: Q01DX001 (ip), vehicle: saline with Tween-80.

The structures appear in SMILES notation. Where “and” joins values, the source holds several entries; their conditions need not be identical. Equal entries are not always repeated. Inconclusive results and toxic doses are left out.

On to `CN(C)C(=S)N(C)C`, for which the T/C is 100 % of control under setting [1], 100 % of control under setting [2] and 118 % of control under setting [3].

For `COC(OC)c1[nH]c(=S)[nH]c(=O)c1Cc1ccccc1`, the T/C runs as follows: under setting [4], 104 % of control; under setting [5], 112 % of control; under setting [6], 112 % of control.

Take `O=C(/C=C/c1c(Cl)cccc1Cl)c1ccccc1`: the T/C (dose: 50.0 mg/kg/injection, schedule: Q01DX009 (ip), vehicle: Klucel (hydroxypropylcellulose) (HPC)) is 97 % of control; the T/C under setting [7] is 105 % of control; the T/C under setting [8] was 97 % of control.

With `O=C(Nc1ccc(C2=NCCN2)cc1)c1ccc(C(=O)Nc2ccc(C3=NCCN3)cc2)c(F)c1`, the T/C runs as follows: under setting [4], 172 % of control; under setting [5], 213 % of control; (dose: 264.0 mg/kg/injection, schedule: Q04DX003 (ip), vehicle: saline with Tween-80) 226 % of control; under setting [6], 250 % of control and 221 % of control; (dose: 600.0 mg/kg/injection, schedule: Q04DX003 (ip), vehicle: saline with Tween-80) 191 % of control.

For the compound `Clc1ccc(C2CC3CCCCN3O2)cc1` (configuration not stated), the T/C by setting is: under setting [9], 90 % of control; under setting [10], 99 % of control; under setting [11], 90 % of control.

Turning to `C[N+](C)(C)c1ncnc2nc[nH]c12`, the T/C by setting is: (dose: 15.0 mg/kg/injection, schedule: Q01DX010 (ip), vehicle: saline) 91 % of control and 100 % of control; (dose: 30.0 mg/kg/injection, schedule: Q01DX010 (ip), vehicle: saline) 100 % of control and 104 % of control; (dose: 60.0 mg/kg/injection, schedule: Q01DX010 (ip), vehicle: saline) 91 % of control and 100 % of control; (dose: 100.0 mg/kg/injection, schedule: Q01DX001 (ip), vehicle: saline) 100 % of control; (dose: 120.0 mg/kg/injection, schedule: Q01DX010 (ip), vehicle: saline) 91 % of control and 95 % of control; (dose: 200.0 mg/kg/injection, schedule: Q01DX001 (ip), vehicle: saline) 110 % of control.

`COCn1cc(C(N)=O)c(=O)c2c(N)nc(SC)nc21`: the T/C runs as follows: (dose: 100.0 mg/kg/injection, schedule: Q04DX002 (ip), vehicle: saline with Tween-80) 90 % of control; (dose: 400.0 mg/kg/injection, schedule: Q04DX002 (ip), vehicle: saline with Tween-80) 96 % of control.

For `O=S(=O)(O)c1ccc(Nc2ccccc2)cc1`, the T/C by setting is: under setting [7], 100 % of control; under setting [12], 104 % of control.

With `Cc1ccc(NC(=O)c2ccc([N+](=O)[O-])cc2)c(C)c1`, the T/C runs as follows: under setting [4], 100 % of control; under setting [5], 104 % of control; under setting [6], 96 % of control.

For the compound `COc1ccc(/C=C/C(=O)c2ccc3cc(OC)c(OC)cc3c2)cc1OC`, the T/C was 98 % of control (dose: 25.0 mg/kg/injection, schedule: Q01DX009 (ip), vehicle: saline); 91 % of control (dose: 50.0 mg/kg/injection, schedule: Q01DX009 (ip), vehicle: saline); 87 % of control (dose: 100.0 mg/kg/injection, schedule: Q01DX009 (ip), vehicle: saline); 100 % of control (dose: 200.0 mg/kg/injection, schedule: Q01DX009 (ip), vehicle: saline); 91 % of control (dose: 400.0 mg/kg/injection, schedule: Q01DX009 (ip), vehicle: saline).

Turning to `O=C(NC(NC(=O)c1ccc(Cl)cc1)C(Cl)(Cl)Cl)c1ccc(Cl)cc1`, the T/C (dose: 25.0 mg/kg/injection, schedule: Q04DX003 (ip), vehicle: saline with Tween-80) is 90 % of control; the T/C under setting [13] is 86 % of control; the T/C under setting [4] was 90 % of control.

With `OCC1C(CO)C2(Cl)C(Cl)=C(Cl)C1(Cl)C2(Cl)Cl` (configuration not stated), the T/C is 100 % of control under setting [7]; 100 % of control under setting [14]; 118 % of control under setting [8]; 95 % of control under setting [15]; 100 % of control under setting [12]; 109 % of control under setting [16].

Turning to `Cc1ccc(C(=O)C2CN(C)CCC2(O)c2ccc(C)cc2)cc1` (configuration not stated), the T/C by setting is: (dose: 100.0 mg/kg/injection, schedule: Q01DX001 (ip), vehicle: Klucel (hydroxypropylcellulose) (HPC)) 90 % of control; (dose: 200.0 mg/kg/injection, schedule: Q01DX001 (ip), vehicle: Klucel (hydroxypropylcellulose) (HPC)) 110 % of control; (dose: 400.0 mg/kg/injection, schedule: Q01DX001 (ip), vehicle: Klucel (hydroxypropylcellulose) (HPC)) 90 % of control.

As to `Cn1c(N)c(N=Nc2ccccc2)c(=O)[nH]c1=O`, the T/C under setting [17] was 100 % of control, the T/C under setting [18] was 102 % of control and the T/C under setting [19] is 90 % of control.

Turning to `CCC(C)P(=O)(N1CC1)N1CC1` (configuration not stated), for the setting “dose: 37.5 mg/kg/injection, schedule: Q04DX003 (ip), vehicle: saline”, the T/C is 108 % of control.

As to `CCCCOB(OCCCC)Oc1c(C(C)(C)C)cccc1C(C)(C)C`, the T/C under setting [1] was 100 % of control, the T/C under setting [2] is 112 % of control and the T/C under setting [3] was 108 % of control.

Consider `NC(Cc1nn[nH]n1)C(=O)O` (configuration not stated), for which the T/C was 100 % of control (dose: 100.0 mg/kg/injection, schedule: Q01DX009 (ip), vehicle: water); 97 % of control (dose: 100.0 mg/kg/injection, schedule: Q04DX003 (ip), vehicle: water); 94 % of control (dose: 200.0 mg/kg/injection, schedule: Q01DX009 (ip), vehicle: water); 96 % of control (dose: 200.0 mg/kg/injection, schedule: Q04DX003 (ip), vehicle: water); 94 % of control (dose: 400.0 mg/kg/injection, schedule: Q01DX009 (ip), vehicle: water); 90 % of control (dose: 400.0 mg/kg/injection, schedule: Q04DX003 (ip), vehicle: water).

With `CC[C@H]1CN(C)[C@H]2Cc3c([nH]c4ccccc34)C(=O)C[C@H]1C2C(=O)OC` (some centres not stated), the T/C reads like this: (dose: 0.25 mg/kg/injection, schedule: Q01DX009 (ip), vehicle: other) 86 % of control; (dose: 0.5 mg/kg/injection, schedule: Q01DX009 (ip), vehicle: other) 86 % of control; (dose: 1.0 mg/kg/injection, schedule: Q01DX009 (ip), vehicle: other) 86 % of control; (dose: 2.0 mg/kg/injection, schedule: Q01DX009 (ip), vehicle: other) 95 % of control.

As to `CCOC(=O)CCCN(c1sc(C)c(-c2ccccc2)c1C(=O)OCC)S(=O)(=O)c1ccc(C)cc1`, the T/C is, setting by setting: under setting [10], 109 % of control; under setting [11], 90 % of control.

In the case of `COC(=O)CCN1CC1`, the T/C is, setting by setting: under setting [17], 101 % of control; under setting [18], 107 % of control; under setting [19], 92 % of control.

Turning to `O=C(Cn1ccc(=O)[nH]c1=O)c1cccs1`, the T/C under setting [10] was 90 % of control; the T/C under setting [4] was 100 % of control; the T/C under setting [11] is 86 % of control; the T/C under setting [5] was 95 % of control; the T/C (dose: 400.0 mg/kg/injection, schedule: Q01DX009 (ip), vehicle: saline with Tween-80) was 100 % of control; the T/C under setting [6] is 95 % of control.

Take `COc1ccc2[nH]c3c(C)c4cc[n+](C)cc4c(C)c3c2c1`: the T/C (dose: 6.25 mg/kg/injection, schedule: Q01DX009 (ip), vehicle: saline with Tween-80) is 99 % of control.

On to `CCC1(O)C2CCCC1CCC2` (configuration not stated), for which the T/C runs as follows: (dose: 100.0 mg/kg/injection, schedule: Q01DX009 (ip), vehicle: other) 100 % of control; under setting [14], 100 % of control; (dose: 200.0 mg/kg/injection, schedule: Q01DX009 (ip), vehicle: other) 109 % of control; under setting [15], 108 % of control; (dose: 400.0 mg/kg/injection, schedule: Q01DX009 (ip), vehicle: other) 113 % of control; under setting [16], 100 % of control.

On to `OCCOc1c(Cl)c(Cl)c(Cl)c(Cl)c1Cl`, for which the T/C is, setting by setting: (dose: 25.0 mg/kg/injection, schedule: Q01DX009 (ip), vehicle: saline with Tween-80) 100 % of control; under setting [9], 104 % of control; under setting [13], 100 % of control; under setting [10], 118 % of control; under setting [4], 100 % of control.
